Where a SMILES comes first, the peptide text is derived from it. [ ]: non-standard residue; d: D form. The star is where a group is joined. NHCH2CH2OH = OCCN*; For = O=C*
Experiments:
[1] = H+/Na+ transport assay of bead-derived peptides (one-point); type: biochemical; design: key: relative activity; mean of two control wells = 1.00; settings: bead-derived peptide solution, EYPC/EYPG LUVs;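 note: relative to parent gramicidin A activity set to 1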
Procedure, shortened: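 Miniaturized 96-well format. LUVs with entrapped pyranine (1.0 mM) were exposed to peptide for 30 min at RT. Intensities were expressed relative to full lysis by Triton X-100 and no treatment, with control-well mean = 1.00.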

[2] = test system: Streptococcus pyogenes SSI-9; experiment: Antibacterial activity assay of bead-derived peptides (three concentrations); type: cell-based; design: key: +++: inhibition by the 640-fold diluted peptide solution; ++: inhibition by the 160-fold diluted solution; +: inhibition by the 40-fold diluted solution; -: no inhibition; settings: S. pyogenes, bead-derived peptide solution, three concentrations
Procedure, shortened: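 Library peptide stock applied undiluted, 4-fold and 16-fold diluted in DMSO to S. pyogenes SSI-9 (2 × 10^5 CFU) in cation-adjusted Mueller Hinton broth with 5% laked horse blood. After 18 h at 37 °C, growth judged by visible cell precipitation.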

[3] = test system: P388 mouse leukemia cells; settings: 92 h
Procedure, shortened: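 P388 cells at 1 × 10^4 cells/mL (final) were exposed to library peptides (stocks diluted 250-fold in RPMI1640/10% FBS) for 92 h at 37 °C, 5% CO2. Viable cells were counted by WST-1/1-methoxy PMS (4 h), absorbance 415 nm, and expressed as cell viability (%).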

| SMILES | H+/Na+ transport activity normalized against the value of 1 (1.00) [1] | antibacterial activity [2] | cell viability/% [3] |
| --- | --- | --- | --- |
| CNC(=O)C[C@@H](NC(=O)[C@H](Cc1c[nH]c2ccccc12)NC(=O)[C@@H](CC(C)C)NC(=O)[C@H](Cc1c[nH]c2ccccc12)NC(=O)[C@H](NC(=O)[C@H](Cc1c[nH]c2ccccc12)NC(=O)[C@H](NC(=O)[C@@H](NC(=O)[C@@H](CC(C)C)NC(=O)[C@H](C)NC(=O)[C@@H](CC(C)C)NC(=O)[C@H](C)NC(=O)CNC(=O)[C@@H](NC=O)C(C)C)C(C)C)C(C)C)C(C)C)C(=O)N[C@@H](Cc1c[nH]c2ccccc12)C(=O)NCCO [compound 9609] (For-VGA[dL]A[dL]V[dV]W[dV]W[dL]W[dD](NHMe)W-NHCH2CH2OH) | 1.15 | - | 100.0% |
| CNC(=O)C[C@@H](NC(=O)[C@H](Cc1c[nH]c2ccccc12)NC(=O)[C@H](NC(=O)[C@H](Cc1c[nH]c2ccccc12)NC(=O)[C@H](NC(=O)[C@H](Cc1c[nH]c2ccccc12)NC(=O)[C@@H](CC(C)C)NC(=O)[C@@H](NC(=O)[C@H](NC(=O)[C@H](C)NC(=O)[C@@H](CC(C)C)NC(=O)[C@H](C)NC(=O)CNC(=O)[C@@H](NC=O)C(C)C)C(C)C)C(C)C)C(C)C)C(C)C)C(=O)N[C@@H](Cc1c[nH]c2ccccc12)C(=O)NCCO [compound 8567] (For-VGA[dL]A[dV]V[dL]W[dV]W[dV]W[dD](NHMe)W-NHCH2CH2OH) | 1.22 | - | 60.9% |
| CC(C)C[C@@H](NC(=O)[C@H](Cc1c[nH]c2ccccc12)NC(=O)[C@H](NC(=O)[C@H](Cc1c[nH]c2ccccc12)NC(=O)[C@H](NC(=O)[C@@H](NC(=O)[C@H](NC(=O)[C@H](C)NC(=O)[C@H](NC(=O)[C@H](C)NC(=O)CNC(=O)[C@@H](NC=O)C(C)C)[C@H](C)O)C(C)C)C(C)C)C(C)C)C(C)C)C(=O)N[C@@H](Cc1c[nH]c2ccccc12)C(=O)N[C@@H](C(=O)N[C@@H](Cc1c[nH]c2ccccc12)C(=O)NCCO)C(C)C [compound 5933] (For-VGA[dT]A[dV]V[dV]W[dV]W[dL]W[dV]W-NHCH2CH2OH) | 1.05 | - | 73.0% |
| CC(C)C[C@@H](NC(=O)[C@H](C)NC(=O)[C@H](NC(=O)[C@H](C)NC(=O)CNC(=O)[C@@H](NC=O)C(C)C)C(C)C)C(=O)N[C@H](C(=O)N[C@@H](C(=O)N[C@@H](Cc1c[nH]c2ccccc12)C(=O)N[C@@H](C(=O)N[C@@H](Cc1c[nH]c2ccccc12)C(=O)N[C@H](CC(C)C)C(=O)N[C@@H](Cc1c[nH]c2ccccc12)C(=O)N[C@H](CC(C)C)C(=O)N[C@@H](Cc1c[nH]c2ccccc12)C(=O)NCCO)C(C)C)[C@H](C)O)C(C)C [compound 7840] (For-VGA[dV]A[dL]V[dT]W[dV]W[dL]W[dL]W-NHCH2CH2OH) | 1.12 | - | 100.0% |
| CC(C)C[C@@H](NC(=O)[C@H](C)NC(=O)CNC(=O)[C@@H](NC=O)C(C)C)C(=O)N[C@@H](C)C(=O)N[C@H](CC(C)C)C(=O)N[C@H](C(=O)N[C@H](CC(C)C)C(=O)N[C@@H](Cc1c[nH]c2ccccc12)C(=O)N[C@H](CC(C)C)C(=O)N[C@@H](Cc1c[nH]c2ccccc12)C(=O)N[C@H](CC(C)C)C(=O)N[C@@H](Cc1c[nH]c2ccccc12)C(=O)N[C@@H](C(=O)N[C@@H](Cc1c[nH]c2ccccc12)C(=O)NCCO)C(C)C)C(C)C [compound 10340] (For-VGA[dL]A[dL]V[dL]W[dL]W[dL]W[dV]W-NHCH2CH2OH) | 1.00 | - | 3.4% |
| CNC(=O)C[C@@H](NC(=O)[C@@H](NC(=O)[C@@H](CC(C)C)NC(=O)[C@H](C)NC(=O)[C@@H](CC(C)C)NC(=O)[C@H](C)NC(=O)CNC(=O)[C@@H](NC=O)C(C)C)C(C)C)C(=O)N[C@@H](Cc1c[nH]c2ccccc12)C(=O)N[C@H](CC(C)C)C(=O)N[C@@H](Cc1c[nH]c2ccccc12)C(=O)N[C@H](CC(C)C)C(=O)N[C@@H](Cc1c[nH]c2ccccc12)C(=O)N[C@@H](C(=O)N[C@@H](Cc1c[nH]c2ccccc12)C(=O)NCCO)C(C)C [compound 6851] (For-VGA[dL]A[dL]V[dD](NHMe)W[dL]W[dL]W[dV]W-NHCH2CH2OH) | 1.16 | - | 100.0% |
| CC(C)C[C@@H](NC(=O)[C@H](Cc1c[nH]c2ccccc12)NC(=O)[C@H](NC(=O)[C@H](Cc1c[nH]c2ccccc12)NC(=O)[C@@H](CC(C)C)NC(=O)[C@@H](NC(=O)[C@H](NC(=O)[C@H](C)NC(=O)[C@H](NC(=O)[C@H](C)NC(=O)CNC(=O)[C@@H](NC=O)C(C)C)C(C)C)C(C)C)C(C)C)C(C)C)C(=O)N[C@@H](Cc1c[nH]c2ccccc12)C(=O)N[C@@H](C(=O)N[C@@H](Cc1c[nH]c2ccccc12)C(=O)NCCO)C(C)C [compound 2554] (For-VGA[dV]A[dV]V[dL]W[dV]W[dL]W[dV]W-NHCH2CH2OH) | 1.06 | ++ | 9.2% |
| CC(C)C[C@@H](NC(=O)[C@H](C)NC(=O)CNC(=O)[C@@H](NC=O)C(C)C)C(=O)N[C@@H](C)C(=O)N[C@H](CC(C)C)C(=O)N[C@H](C(=O)N[C@@H](C(=O)N[C@@H](Cc1c[nH]c2ccccc12)C(=O)N[C@@H](C(=O)N[C@@H](Cc1c[nH]c2ccccc12)C(=O)N[C@H](CC(C)C)C(=O)N[C@@H](Cc1c[nH]c2ccccc12)C(=O)N[C@H](CC(C)C)C(=O)N[C@@H](Cc1c[nH]c2ccccc12)C(=O)NCCO)[C@H](C)O)C(C)C)C(C)C [compound 7067] (For-VGA[dL]A[dL]V[dV]W[dT]W[dL]W[dL]W-NHCH2CH2OH) | 1.02 | - | 100.0% |
| CNC(=O)C[C@@H](NC(=O)[C@@H](NC(=O)[C@H](NC(=O)[C@H](C)NC(=O)[C@@H](CC(C)C)NC(=O)[C@H](C)NC(=O)CNC(=O)[C@@H](NC=O)C(C)C)C(C)C)C(C)C)C(=O)N[C@@H](Cc1c[nH]c2ccccc12)C(=O)N[C@H](CC(C)C)C(=O)N[C@@H](Cc1c[nH]c2ccccc12)C(=O)N[C@H](CC(C)C)C(=O)N[C@@H](Cc1c[nH]c2ccccc12)C(=O)N[C@H](CC(C)C)C(=O)N[C@@H](Cc1c[nH]c2ccccc12)C(=O)NCCO [compound 9336] (For-VGA[dL]A[dV]V[dD](NHMe)W[dL]W[dL]W[dL]W-NHCH2CH2OH) | 1.18 | - | 100.0% |
| CC(C)C[C@@H](NC(=O)[C@H](C)NC(=O)[C@H](NC(=O)[C@H](C)NC(=O)CNC(=O)[C@@H](NC=O)C(C)C)C(C)C)C(=O)N[C@H](C(=O)N[C@H](CC(C)C)C(=O)N[C@@H](Cc1c[nH]c2ccccc12)C(=O)N[C@@H](C(=O)N[C@@H](Cc1c[nH]c2ccccc12)C(=O)N[C@@H](C(=O)N[C@@H](Cc1c[nH]c2ccccc12)C(=O)N[C@@H](C(=O)N[C@@H](Cc1c[nH]c2ccccc12)C(=O)NCCO)C(C)C)C(C)C)C(C)C)C(C)C [compound 4477] (For-VGA[dV]A[dL]V[dL]W[dV]W[dV]W[dV]W-NHCH2CH2OH) | 1.38 | + | 6.3% |
| CC(C)C[C@@H](NC(=O)[C@H](Cc1c[nH]c2ccccc12)NC(=O)[C@H](NC(=O)[C@H](Cc1c[nH]c2ccccc12)NC(=O)[C@H](NC(=O)[C@H](Cc1c[nH]c2ccccc12)NC(=O)[C@@H](CC(C)C)NC(=O)[C@@H](NC(=O)[C@H](NC(=O)[C@H](C)NC(=O)[C@H](NC(=O)[C@H](C)NC(=O)CNC(=O)[C@@H](NC=O)C(C)C)C(C)C)C(C)C)C(C)C)C(C)C)C(C)C)C(=O)N[C@@H](Cc1c[nH]c2ccccc12)C(=O)NCCO [compound 97] (For-VGA[dV]A[dV]V[dL]W[dV]W[dV]W[dL]W-NHCH2CH2OH) | 1.24 | + | 59.7% |
| CC(C)C[C@@H](NC(=O)[C@H](Cc1c[nH]c2ccccc12)NC(=O)[C@H](NC(=O)[C@H](Cc1c[nH]c2ccccc12)NC(=O)[C@H](NC(=O)[C@H](Cc1c[nH]c2ccccc12)NC(=O)[C@H](NC(=O)[C@@H](NC(=O)[C@H](NC(=O)[C@H](C)NC(=O)[C@H](NC(=O)[C@H](C)NC(=O)CNC(=O)[C@@H](NC=O)C(C)C)C(C)C)C(C)C)C(C)C)C(C)C)C(C)C)C(C)C)C(=O)N[C@@H](Cc1c[nH]c2ccccc12)C(=O)NCCO [compound 2182] (For-VGA[dV]A[dV]V[dV]W[dV]W[dV]W[dL]W-NHCH2CH2OH) | 1.28 | ++ | 100.0% |
| CNC(=O)C[C@@H](NC(=O)[C@@H](NC(=O)[C@H](NC(=O)[C@H](C)NC(=O)[C@@H](CC(C)C)NC(=O)[C@H](C)NC(=O)CNC(=O)[C@@H](NC=O)C(C)C)C(C)C)C(C)C)C(=O)N[C@@H](Cc1c[nH]c2ccccc12)C(=O)N[C@@H](C(=O)N[C@@H](Cc1c[nH]c2ccccc12)C(=O)N[C@@H](C(=O)N[C@@H](Cc1c[nH]c2ccccc12)C(=O)N[C@H](CC(C)C)C(=O)N[C@@H](Cc1c[nH]c2ccccc12)C(=O)NCCO)C(C)C)C(C)C [compound 12636] (For-VGA[dL]A[dV]V[dD](NHMe)W[dV]W[dV]W[dL]W-NHCH2CH2OH) | 1.21 | - | 100.0% |

Source: article PMC7531004, “Discovery of gramicidin A analogues with altered activities by multidimensional screening of a one-bead-one-compound library” (Nature Communications, 2020)
